Tests used:
Type in all cases: in vivo, human
[1] = system: excessive daytime sleepiness (EDS) in subjects with PWS; test: Phase 2 randomized placebo-controlled study: ESS-CHAD (parent/caregiver version)
Protocol: (§1) A study was carried out to evaluate the efficacy and safety of pitolisant for the treatment of EDS in subjects with PWS. This was a phase 2, randomized, placebo-controlled, proof-of-concept study. Children (aged 6 to <12 years), adolescents (aged 12 to <18 years), and adults (aged 18-65 years) with a confirmed diagnosis of PWS were randomly assigned to receive low-dose pitolisant (8.9 mg in children, 13.35 mg in adolescents, and 17.8 mg in adults) or high dose pitolisant (17.8 mg in children, 26.7 mg in adolescents, and 35.6 mg in adults), or placebo (see FIG. 1). All doses are expressed in terms of pitolisant freebase.
(§2) The 11-week double-blind treatment period consisted of a 3-week titration phase and an 8-week stable-dose phase.
The primary efficacy endpoint was the change from baseline to Week 11 in total score for the parent/caregiver version of the Epworth Sleepiness Scale for Children and Adolescents (ESS-CHAD), which is a validated measurement for sleep propensity. (See Janssen K C, et al. Sleep Med. 2017; 33:30-35; see also Patel V P, et al. J. Clin. Sleep Med. 2022; 18 (2): 485-496). A separate analysis was treatment response defined as ESS-CHAD score reduction of ≥3 points from baseline or Week 11 score of ≤10.

[2] = system: EDS severity in subjects with PWS; test: Phase 2 study: Caregiver Global Impression of Severity (CaGI-S) for EDS; conditions: Week 11
Protocol: as §1, §2
(§3) Secondary/exploratory endpoints included change from baseline in Caregiver Global Impression of Severity (CaGI-S) for EDS, behavioral disturbance (Aberrant Behavior Checklist-2 [ABC-2]), and hyperphagia (Hyperphagia Questionnaire for Clinical Trials [HQ-CT] in conjunction with the Food Safe Zone Questionnaire [FSZQ]). The primary time frame of interest was from baseline to Week 11.

[3] = system: behavioral problems in subjects with PWS; test: Phase 2 study: Aberrant Behavior Checklist-2 (ABC-2)
Protocol: as §1, §2, §3
The ABC-2 is a widely used and validated questionnaire that can assess changes in behavioral problems, and is particularly suitable for assessing behavioral changes in subjects with intellectual and developmental disabilities. The ABC-2 questions are subdivided into five domains (irritability, social withdrawal, hyperactivity/noncompliance, inappropriate speech, and stereotypic behavior). Generally, a reduction of 2 or more points in a domain of the ABC-2 is considered clinically meaningful. ABC-2 was used in this trial to determine if pitolisant improved or reduced behavioral problems experienced by subjects living with PWS.

[4] = system: hyperphagia in subjects with PWS; test: Phase 2 study: Hyperphagia Questionnaire for Clinical Trials (HQ-CT); conditions: Week 11; children (6 to <12 years) and adults (18 to 65 years)
Protocol: as §1, §2, §3

[5] = system: patients with PWS; test: Phase 2 study: treatment-emergent adverse events; conditions: for Treatment-related TEAEs: possibly, probably, or definitely related to study drug
Protocol: as §1, §2

[6] = adolescents (12 to <18 years), higher-dose, n = 6
[7] = adolescents (12 to <18 years), lower-dose, n = 4
[8] = adults (18 to 65 years), higher-dose, n = 5
[9] = adults (18 to 65 years), lower-dose, n = 3
[10] = all patient groups, high dose pitolisant, n = 22
[11] = all patient groups, low dose pitolisant, n = 18
[12] = pitolisant-treated patients (doses pooled)

With `Clc1ccc(CCCOCCCN2CCCCC2)cc1` [pitolisant] the “ESS-CHAD (Parent/Caregiver Version) mean change from baseline at Week 11” value ([1]; 6 to <12 years, high-dose pitolisant (17.8 mg), n = 11) was −5.5 points, the “ESS-CHAD (Parent/Caregiver Version) mean change from baseline at Week 11” value ([1]; 6 to <12 years, low-dose pitolisant (8.9 mg), n = 12) was −3.7 points and the “ESS-CHAD (Parent/Caregiver Version) mean change from baseline at Week 11” value ([1]; 12 to <18 years, high-dose pitolisant (26.7 mg), n = 6) was −4.2 points. The “ESS-CHAD (Parent/Caregiver Version) mean change from baseline at Week 11” value ([1]; 12 to <18 years, low-dose pitolisant (13.35 mg), n = 4) was −4.5 points, the “ESS-CHAD (Parent/Caregiver Version) mean change from baseline at Week 11” value ([1]; 18 to 65 years, high-dose pitolisant (35.6 mg), n = 5) was −4.4 points and the “ESS-CHAD (Parent/Caregiver Version) mean change from baseline at Week 11” value ([1]; 18 to 65 years, low-dose pitolisant (17.8 mg), n = 3) was −5.0 points. The “mean improvement from baseline in ESS-CHAD score versus placebo” value ([1]; overall patient population, end of treatment, both dose groups) was “greater for both pitolisant dose groups compared with the placebo group”, the “ESS-CHAD response rate (score reduction of ≥3 points from baseline or score of ≤10 at Week 11) versus placebo” value ([1]; study completers, Week 11, driven primarily by high-dose group) was “higher for pitolisant versus placebo” and the “reduction in CaGI-S score versus placebo” value ([2]; children (6 to <12 years) and adults) was “greater for pitolisant compared with placebo”. For the same compound, the “CaGI-S mean (SD) change” value ([2]; higher-dose pitolisant group) was −1.1 (1.1), the “CaGI-S mean (SD) change” value ([2]; lower-dose pitolisant group) was −1.0 (1.2) and the “mean reduction on all ABC-2 domains versus placebo” value ([3]; Week 11, children (6 to <12 years), higher-dose pitolisant) was “greater for higher-dose pitolisant compared with placebo”. The “ABC-2 Hyperactivity/noncompliance mean change from baseline to Week 11” value [3, 6] was −3.8, the “ABC-2 Inappropriate speech mean change from baseline to Week 11” value (“ABC-2 Inappropriate speech mean change” below) [3, 6] was −1.7 and the “ABC-2 Irritability mean change from baseline to Week 11” value (from here on “ABC-2 Irritability mean change”) [3, 6] was −5.0. For the same compound, the “ABC-2 Social withdrawal mean change from baseline to Week 11” value (shortened to “ABC-2 Social withdrawal mean change”) [3, 6] was −3.7, the “ABC-2 Stereotypic behavior mean change from baseline to Week 11” value (“ABC-2 Stereotypic behavior mean change” for short) [3, 6] was −0.5 and the “ABC-2 Hyperactivity/noncompliance mean change from baseline to Week 11” value [3, 7] was 0.0. For the same compound, the “ABC-2 Inappropriate speech mean change” value [3, 7] was −0.8, the “ABC-2 Irritability mean change” value [3, 7] was −4.8 and the “ABC-2 Social withdrawal mean change” value [3, 7] was −3.3. For the same compound, the “ABC-2 Stereotypic behavior mean change” value [3, 7] was 0.3, the “ABC-2 Hyperactivity/noncompliance mean change from baseline to Week 11” value [3, 8] was −5.4 and the “ABC-2 Inappropriate speech mean change” value [3, 8] was −2.2. The “ABC-2 Irritability mean change” value [3, 8] was −2.8, the “ABC-2 Social withdrawal mean change” value [3, 8] was −2.4 and the “ABC-2 Stereotypic behavior mean change” value [3, 8] was −2.6. The “ABC-2 Hyperactivity/noncompliance mean change from baseline to Week 11” value [3, 9] was 1.0, the “ABC-2 Inappropriate speech mean change” value [3, 9] was 0.7 and the “ABC-2 Irritability mean change” value [3, 9] was −3.0. The “ABC-2 Social withdrawal mean change” value [3, 9] was −1.0, the “ABC-2 Stereotypic behavior mean change” value [3, 9] was −0.3 and the “ABC-2 Hyperactivity/noncompliance mean change from baseline to Week 11” value [3, 10] was −4.6. For the same compound, the “ABC-2 Inappropriate speech mean change” value [3, 10] was −2.0, the “ABC-2 Irritability mean change” value [3, 10] was −4.8 and the “ABC-2 Social withdrawal mean change” value [3, 10] was −4.0. The “ABC-2 Stereotypic behavior mean change” value [3, 10] was −1.2, the “ABC-2 Hyperactivity/noncompliance mean change from baseline to Week 11” value [3, 11] was −0.4 and the “ABC-2 Inappropriate speech mean change” value [3, 11] was −0.3. For the same compound, the “ABC-2 Irritability mean change” value [3, 11] was −3.4, the “ABC-2 Social withdrawal mean change” value [3, 11] was −1.9 and the “ABC-2 Stereotypic behavior mean change” value [3, 11] was −0.1. The “reductions in three ABC-2 domains including irritability and hyperactivity/noncompliance” value ([3]; high dose group) was “more than 4 points”, the “reduction in HQ-CT score versus placebo” value [4] was “greater for pitolisant compared with placebo” and the Anxiety ([5]; high-dose pitolisant, n = 22) was 1 (4.5) n (%). For the same compound, the “Any TEAE” value ([5]; high-dose pitolisant, n = 22) was 11 (50.0) n (%), the Irritability ([5]; high-dose pitolisant, n = 22) was 2 (9.1) n (%) and the “Most common TEAEs” value ([5]; high-dose pitolisant, n = 22) was 1 (4.5) n (%). For the same compound, the “Serious TEAEs” value ([5]; high-dose pitolisant, n = 22) was 0 n (%), the “Severe TEAEs” value ([5]; high-dose pitolisant, n = 22) was 0 n (%) and the “Treatment-related TEAEs” value ([5]; high-dose pitolisant, n = 22) was 4 (18.2) n (%). The Anxiety ([5]; low-dose pitolisant, n = 20) was 4 (20.0) n (%), the “Any TEAE” value ([5]; low-dose pitolisant, n = 20) was 13 (65.0) n (%) and the Irritability ([5]; low-dose pitolisant, n = 20) was 3 (15.0) n (%). For the same compound, the “Most common TEAEs” value ([5]; low-dose pitolisant, n = 20) was 4 (20.0) n (%), the “Serious TEAEs” value ([5]; low-dose pitolisant, n = 20) was 0 n (%) and the “Severe TEAEs” value ([5]; low-dose pitolisant, n = 20) was 0 n (%). For the same compound, the “Treatment-related TEAEs” value ([5]; low-dose pitolisant, n = 20) was 7 (35.0) n (%), the “safety and tolerability versus known safety profile” value ([5]; patients with PWS) was “no new safety signals were observed” and the “adverse event anxiety, incidence” value [5, 12] was 13.0%. The “adverse event irritability, incidence” value [5, 12] was 17.4%.

From patent US20240398777A1, “METHOD OF TREATING SYMPTOMS OF PRADER-WILLI SYNDROME” (HARMONY BIOSCIENCES, LLC, priority 2023, published 2024)
